Data on four molecules can be found in article PMC2191741 (The Journal of Experimental Medicine, 1994).

Assay [1] has as its system human polyclonal IgM RF binding to mAb II-481. Particulars: text summary across the individual polyclonal IgM RFs tested.
Another assay has as its system gE of HSV-1. Put plainly: ELISA of hybridoma supernatants with isolated gE and whole HSV-1. Format: binding. Particulars: hybridoma supernatant; isolated gE 5 ug/ml. (An ELISA detects its analyte on a solid surface through an enzyme-linked reagent.)

Consider CIKVAVS [reference compound], for which, in assay [1], the “inhibition of RF binding to mAb II-481 by single inhibitor” value (shortened to “inhibition of RF binding”) is recorded as “No inhibition”.

As to HIWWNDN, the “inhibition of RF binding” value in assay [1] was 80-100%.

Regarding SGVPDRF, the “inhibition of RF binding” value in assay [1] is recorded as 62-90%.

B1: mAb II-481: IgG-2b mouse mAb directed at gE of HSV-1 (antibody, V domains shown)
VH: GILQPSQTLSLTCSFSGFSLTTYGIGVGWIRQPSGKGLEWLAHIWWNDNKFYNTVLKSRLTISRDTSNNQVFLRIASMDTADTATYYCARMRDGAWFAYWGQGTLVTVSA
VL: SLAVSAGEKVTMTCKSSQSVLYSSDHKNYLAWYQQKPGQSPKLLIYWASTRESGVPDRFTGSGSGTDFTLTINNVQTEDLAVYFCHQYLSSFTFGGGTKLEIQ
For B1, the “inhibition of RF binding” value in assay [1] is “complete inhibition”. Besides, the “reactivity with isolated gE and whole HSV-1 by ELISA” value in the assay on gE of HSV-1 was “strong anti-gE specificity”.
